One may read the pIC50 as −log10 of the IC50, conventionally taken in molar units. As a reminder, the Kp is the ratio of the level in a tissue or fluid to that in plasma or blood.

Results on 2 molecules are retold here after ChEMBL document CHEMBL1156067, “Pyrimidine-based antagonists of h-MCH-R1 derived from ATC0175: in vitro profiling and in vivo evaluation” (Bioorg Med Chem Lett, 2009).

The target in data set [1] is T1, Alpha-1A adrenergic receptor (Homo sapiens, UniProt P35348).
T1 sequence (P35348 whole entry): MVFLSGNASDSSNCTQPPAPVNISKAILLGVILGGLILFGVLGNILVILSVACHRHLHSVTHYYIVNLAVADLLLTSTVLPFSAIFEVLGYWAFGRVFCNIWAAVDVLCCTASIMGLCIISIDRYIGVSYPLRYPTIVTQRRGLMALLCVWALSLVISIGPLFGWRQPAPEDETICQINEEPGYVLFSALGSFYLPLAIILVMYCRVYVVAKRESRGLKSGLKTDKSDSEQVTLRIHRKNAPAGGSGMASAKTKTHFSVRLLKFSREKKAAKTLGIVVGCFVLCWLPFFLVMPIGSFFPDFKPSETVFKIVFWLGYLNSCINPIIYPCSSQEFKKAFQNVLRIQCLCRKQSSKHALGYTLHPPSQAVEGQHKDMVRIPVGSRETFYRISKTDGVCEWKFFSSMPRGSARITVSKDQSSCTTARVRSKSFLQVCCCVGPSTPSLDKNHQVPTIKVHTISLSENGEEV
The experiment in a line: Displacement of [3H]prazosin from human adrenergic alpha1A receptor. In general terms: Displacement assays read how much labelled ligand stays bound in the presence of the test substance.

Data set [2] can be described thus: Plasma concentration in Sprague-Dawley rat at 10 mg/kg, po after 4 hrs. Format: ADME, organism-based. Set-up: dose 10 mg/kg, route oral.
Data set [3] relates to Rattus norvegicus. The experiment in a line: Reduction in body weight in diet-induced obese Wistar rat chronic feeding model at 10 mg/kg, po once daily after 28 days relative to control. The class given is functional. Set-up: scale not given: the % may be the effect or the level left.
Data set [4] relates to Rattus norvegicus. The experiment in a line: Reduction in body weight in diet-induced obese Wistar rat chronic feeding model at 5 mg/kg, po once daily after 28 days relative to control. The class given is functional. Set-up: scale not given: the % may be the effect or the level left.
The nature of data set [5]: Plasma concentration in Sprague-Dawley rat at 10 mg/kg, po after 2 hrs. Format: ADME, organism-based. Set-up: dose 10 mg/kg, route oral.
The test system of data set [6] is Rattus norvegicus. The experiment in a line: Reduction in food intake in diet-induced obese Wistar rat chronic feeding model at 5 mg/kg, po once daily after 28 days. The class given is functional, organism-based. Also on record: dose 5 mg/kg.
Data set [7] concerns the target Histamine H1 receptor (Homo sapiens, UniProt P35367). The experiment in a line: Displacement of [3H]pyrilamine from human histamine H1 receptor.
For data set [8], the system named is Rattus norvegicus. The experiment in a line: Reduction in body weight in diet-induced obese Wistar rat chronic feeding model at 1 mg/kg, po once daily after 28 days. Format: functional, organism-based. Also on record: dose 1 mg/kg.
The test system of data set [9] is Rattus norvegicus. The experiment in a line: Reduction in food intake in diet-induced obese Wistar rat chronic feeding model at 10 mg/kg, po once daily after 2 days. Format: functional, organism-based. Also on record: dose 10 mg/kg.
Data set [10] concerns the target T2, Alpha-2A adrenergic receptor (Homo sapiens, UniProt P08913).
T2 sequence (P08913 whole entry): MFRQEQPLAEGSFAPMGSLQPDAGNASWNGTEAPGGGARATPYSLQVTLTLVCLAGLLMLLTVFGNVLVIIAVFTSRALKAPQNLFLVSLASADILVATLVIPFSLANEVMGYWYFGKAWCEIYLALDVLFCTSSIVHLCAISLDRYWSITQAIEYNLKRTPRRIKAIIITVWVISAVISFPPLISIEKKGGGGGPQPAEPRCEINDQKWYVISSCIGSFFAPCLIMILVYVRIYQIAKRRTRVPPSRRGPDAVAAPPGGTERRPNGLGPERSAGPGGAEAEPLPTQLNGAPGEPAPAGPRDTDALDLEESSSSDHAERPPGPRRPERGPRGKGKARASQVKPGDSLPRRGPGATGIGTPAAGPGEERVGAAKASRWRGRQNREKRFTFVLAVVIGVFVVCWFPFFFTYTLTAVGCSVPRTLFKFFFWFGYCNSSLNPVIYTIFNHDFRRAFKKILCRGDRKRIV
The experiment in a line: Displacement of [3H]MK-912 from human adrenergic alpha2A receptor.

Data set [11] concerns Rattus norvegicus. The experiment in a line: Reduction in food intake in diet-induced obese Wistar rat chronic feeding model at 10 mg/kg, po once daily up to 28 days measured after 2 weeks of recovery period. Format: functional, organism-based. Set-up: dose 10 mg/kg.
Data set [12] can be described thus: Drug level in Sprague-Dawley rat brain at 10 mg/kg, po after 4 hrs. The class given is ADME, organism-based. Also on record: dose 10 mg/kg, route oral.
Data set [13] concerns Rattus norvegicus. The experiment in a line: Reduction in body weight in diet-induced obese Wistar rat chronic feeding model at 15 mg/kg, po once daily after 14 days relative to control. The class given is functional. Also on record: scale not given: the % may be the effect or the level left.
Data set [14] addresses T3, 5-hydroxytryptamine receptor 2B (Homo sapiens, UniProt P41595). The experiment in a line: Displacement of [3H]rauwolsine from human 5HT2B receptor.
Data set [15] has as its system Rattus norvegicus. The experiment in a line: Reduction in body weight in diet-induced obese Wistar rat chronic feeding model at 10 mg/kg, po once daily up to 28 days measured after 2 weeks of recovery period. Format: functional, organism-based. Also on record: dose 10 mg/kg.
The target of data set [16] is Melanin-concentrating hormone receptor 1 (Homo sapiens, UniProt Q99705). The experiment in a line: Antagonist activity at CART form of human MCH1 receptor expressed in HEK293 cells coexpressing Galphaq assessed as inhibition of MCH-induced intracellular calcium level by FLIPR assay. The class given is functional, cell-based.
Sequence of Melanin-concentrating hormone receptor 1 (Q99705 whole entry, looked up): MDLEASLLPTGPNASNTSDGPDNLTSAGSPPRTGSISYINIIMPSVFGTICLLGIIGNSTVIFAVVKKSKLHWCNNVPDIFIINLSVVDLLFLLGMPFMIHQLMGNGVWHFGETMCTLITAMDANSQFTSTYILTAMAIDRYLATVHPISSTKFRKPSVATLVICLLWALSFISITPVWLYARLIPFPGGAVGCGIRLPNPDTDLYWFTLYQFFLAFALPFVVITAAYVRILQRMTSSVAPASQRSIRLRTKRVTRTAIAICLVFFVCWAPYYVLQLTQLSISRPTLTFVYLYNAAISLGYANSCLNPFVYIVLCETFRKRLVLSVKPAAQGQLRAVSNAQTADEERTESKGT
The nature of data set [17]: Drug level in Sprague-Dawley rat brain at 10 mg/kg, po after 2 hrs. Format: ADME, organism-based. Set-up: dose 10 mg/kg, route oral.
For data set [18], the system named is Rattus norvegicus. The experiment in a line: Reduction in food intake in diet-induced obese Wistar rat chronic feeding model at 1 mg/kg, po once daily after 28 days. Format: functional, organism-based. Set-up: dose 1 mg/kg.
Data set [19] concerns Rattus norvegicus. The experiment in a line: Reduction in body weight in diet-induced obese Wistar rat chronic feeding model at 15 mg/kg, po once daily up to 14 days measured after recovery period. Format: functional, organism-based. Also on record: dose 15 mg/kg.
Data set [20] concerns Rattus norvegicus. The experiment in a line: Reduction in food intake in diet-induced obese Wistar rat chronic feeding model at 15 mg/kg, po once daily up to 14 days measured after recovery period. The class given is functional, organism-based. Set-up: dose 15 mg/kg.
The test system of data set [21] is Rattus norvegicus. The experiment in a line: Reduction in food intake in diet-induced obese Wistar rat chronic feeding model at 15 mg/kg, po once daily after 3 days. Format: functional, organism-based. Also on record: dose 15 mg/kg.
For data set [22], the system named is Rattus norvegicus. The experiment in a line: Toxicity in rat at 100 mg/kg, po once daily after 14 days. The note with it: in vivo, 336 h.
The target of data set [23] is T4, 5-hydroxytryptamine receptor 1A (Homo sapiens, UniProt P08908).
T4 sequence (P08908 whole entry): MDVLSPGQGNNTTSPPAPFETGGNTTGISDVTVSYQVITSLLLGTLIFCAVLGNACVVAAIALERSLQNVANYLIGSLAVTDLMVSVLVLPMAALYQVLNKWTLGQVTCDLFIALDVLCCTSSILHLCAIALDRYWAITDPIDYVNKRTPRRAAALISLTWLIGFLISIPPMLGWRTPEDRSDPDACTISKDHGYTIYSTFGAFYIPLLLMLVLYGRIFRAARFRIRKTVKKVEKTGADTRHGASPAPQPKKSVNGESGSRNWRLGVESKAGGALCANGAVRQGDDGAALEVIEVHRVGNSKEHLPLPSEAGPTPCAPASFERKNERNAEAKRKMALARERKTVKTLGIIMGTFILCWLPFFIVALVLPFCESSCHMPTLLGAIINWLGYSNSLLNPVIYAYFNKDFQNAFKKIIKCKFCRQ
The experiment in a line: Inhibition of human 5HT1A.

Data set [24] has as its target T3, 5-hydroxytryptamine receptor 2B. The experiment in a line: Displacement of [125I]LSD from human 5HT2B receptor.
Data set [25] in a line: Ratio of drug level in brain to plasma in po dosed rat. The class given is ADME, organism-based.

Structures are written as SMILES. pIC50: −log10 of the molar value. Active and inactive are the calls of the source. No cut-off for these calls is given here.

T3 sequence (P41595 whole entry): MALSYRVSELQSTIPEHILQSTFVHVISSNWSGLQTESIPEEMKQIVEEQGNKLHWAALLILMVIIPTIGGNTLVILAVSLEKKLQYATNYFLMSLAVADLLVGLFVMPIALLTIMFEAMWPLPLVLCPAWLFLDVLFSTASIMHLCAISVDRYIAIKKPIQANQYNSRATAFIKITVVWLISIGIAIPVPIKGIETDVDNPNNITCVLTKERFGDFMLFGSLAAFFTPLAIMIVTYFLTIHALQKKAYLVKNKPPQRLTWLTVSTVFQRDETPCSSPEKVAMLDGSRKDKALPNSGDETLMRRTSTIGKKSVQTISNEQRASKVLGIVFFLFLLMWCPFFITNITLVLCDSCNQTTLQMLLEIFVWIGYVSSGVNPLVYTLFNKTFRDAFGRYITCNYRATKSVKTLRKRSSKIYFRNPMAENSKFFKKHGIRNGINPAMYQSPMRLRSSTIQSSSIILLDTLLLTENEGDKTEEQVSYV
Sequence of Histamine H1 receptor (P35367 whole entry): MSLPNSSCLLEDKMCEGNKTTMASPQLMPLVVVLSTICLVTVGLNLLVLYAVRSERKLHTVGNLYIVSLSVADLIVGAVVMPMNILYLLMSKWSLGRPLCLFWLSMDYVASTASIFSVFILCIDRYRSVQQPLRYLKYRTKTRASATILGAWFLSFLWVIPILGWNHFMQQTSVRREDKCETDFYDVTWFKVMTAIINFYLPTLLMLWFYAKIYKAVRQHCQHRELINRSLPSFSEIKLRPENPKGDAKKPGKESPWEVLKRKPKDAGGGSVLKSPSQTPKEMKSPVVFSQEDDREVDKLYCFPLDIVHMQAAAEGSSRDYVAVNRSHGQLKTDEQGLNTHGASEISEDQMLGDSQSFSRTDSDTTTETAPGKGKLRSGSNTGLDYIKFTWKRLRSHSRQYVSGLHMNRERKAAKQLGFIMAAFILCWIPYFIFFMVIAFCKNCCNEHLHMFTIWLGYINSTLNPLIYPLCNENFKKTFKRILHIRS

In the case of `Cc1cnc(N[C@H]2CC[C@@H](CNC(=O)c3cc(C(F)(F)F)cc(C(F)(F)F)c3)CC2)nc1N(C)C`, the pIC50 in data set [1] is 5.49; in [7], < 5.00; in data set [10], 6.51; in data set [14], 5.51; in data set [16], 8.30; in data set [23], 5.32. The figures for the concentration at 4 h in data set [2] and in data set [12] were 63 ng/mL and 10 ng/g, respectively. Moreover, the Activity in data set [3] is reported as 17%; in data set [4], -5.4%; in data set [13], >15%; in data set [22], “Non-toxic”. Further, the values for the concentration at 2 h in data set [5] and in [17] were 50 ng/mL and 9 ng/g, respectively. Further, the result in data set [6], in data set [8], in [11], in data set [15], in data set [18] and in data set [19] was inactive. Moreover, the result in data set [20] was inactive. The result in data set [9] and in data set [21] was Active.
Turning to `CN(C)c1nc(N[C@H]2CC[C@@H](NC(=O)c3ccc(F)c(F)c3)CC2)nc2ccccc12`, the pIC50 in data set [1] is 6.52; in [7], 6.82; in [10] it was 6.98; in [14], 6.82; in data set [24] it was 8.02; in data set [23] it was 7.77. The values for the concentration at 4 h in [2] and in [12] were 101 ng/mL and 70 ng/g, respectively. Besides, the concentration at 2 h in [5] turned out to be 109 ng/mL; in data set [17] it was 55 ng/g. The Kp in data set [25] was 0.5.
